# Assay results as given in ChEMBL document CHEMBL1136137, “Ring substituted analogues of 5-aminomethyl-10,11-dihydro-dibenzo[a,d]cycloheptene (AMDH): potential modes of binding to the 5-HT(2A) receptor” (Bioorg Med Chem Lett, 2003).
# pKi: −log10 of the molar value.
# Molecular target: 5-hydroxytryptamine receptor 2A (Rattus norvegicus, UniProt P14842)
# Assay: Binding affinity towards 5-hydroxytryptamine 2A receptor sites by using [3H]ketanserin as radioligand
# Chain of 5-hydroxytryptamine receptor 2A (P14842 whole entry): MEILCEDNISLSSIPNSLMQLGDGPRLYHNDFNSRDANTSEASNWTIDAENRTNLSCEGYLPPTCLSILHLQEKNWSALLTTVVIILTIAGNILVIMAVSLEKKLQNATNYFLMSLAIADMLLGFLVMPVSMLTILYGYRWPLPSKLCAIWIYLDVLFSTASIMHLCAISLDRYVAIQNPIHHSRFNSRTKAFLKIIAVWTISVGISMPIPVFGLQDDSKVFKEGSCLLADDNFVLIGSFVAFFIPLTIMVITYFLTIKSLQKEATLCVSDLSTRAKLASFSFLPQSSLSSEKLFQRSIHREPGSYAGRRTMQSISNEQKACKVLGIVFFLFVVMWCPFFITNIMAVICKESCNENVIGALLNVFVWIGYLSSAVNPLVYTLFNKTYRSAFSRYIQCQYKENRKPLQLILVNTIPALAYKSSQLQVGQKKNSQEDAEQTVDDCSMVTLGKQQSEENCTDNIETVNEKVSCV
compound,measurement,value
CCCCCCc1cc(OC)c(CC(C)N)cc1OC (stereo unspecified),pKi,8.60
COc1ccc2c(c1)CCc1ccccc1C2CN (stereo unspecified),pKi,6.10
CCCCCCc1ccc2c(c1)CCc1ccccc1C2CN (stereo unspecified),pKi,6.20
COc1ccc2c(c1)Cc1ccccc1C2CN (stereo unspecified),pKi,8.12
NCC1c2ccccc2Cc2cc(CCCc3ccccc3)ccc21 (stereo unspecified),pKi,8.49
COc1cc(CC(C)N)c(OC)cc1CCCc1ccccc1 (stereo unspecified),pKi,8.00
COc1cc(OC)c(OC)cc1CC(C)N (stereo unspecified),pKi,5.92
NCC1c2ccccc2CCc2cc(CCCc3ccccc3)ccc21 (stereo unspecified),pKi,7.09
NCC1c2ccccc2Cc2cc(Br)ccc21 (stereo unspecified),pKi,8.89
CCCCCCc1ccc2c(c1)Cc1ccccc1C2CN (stereo unspecified),pKi,8.15
NCC1c2ccccc2CCc2cc(Br)ccc21 (stereo unspecified),pKi,7.43
